In experiment [1] the test system is human E-selectin-IgG chimera. The experiment in a line: Flow chamber assay, cell adhesion and rolling under flow conditions, E-selectin. The class given is cell-based. As to conditions: normalized ratio of %-inhibition of compound divided by %-inhibition of bimosiamose; 125 μM compound; HL-60 cells; flow shear 1 dyne/cm^2. As for the experimental part:
(§1) Flow Chamber Assay/Cell Adhesion and Rolling Under Flow Conditions
(§2) To assess the capability of compounds to inhibit cell binding under dynamic conditions resembling the flow in a blood vessel, flow chamber assays addressing/testing binding of HL-60 cells/various cell lines to P-selectin, L-selectin and E-selectin chimeric molecules are performed.
(§3) Cell attachment under flow conditions is determined using a parallel flow chamber system. A 35 mm polystyrene culture dish is coated for 1 hour at room temperature with coating buffer (50 mM tris-(hydroxymethyl)aminomethane buffer (Tris), 150 mM NaCl, 2 mM CaCl2; pH 7.4) containing human E- or P-selectin-IgG chimera at concentrations of 2.5 μg/ml or 10 μg/ml, respectively. After removal of the coating solution non specific binding sites are blocked for an additional hour with 1% BSA in coating buffer at room temperature. After washing with assay buffer (“Roswell Park Memorial Institute 1640” (RPMI 1640)+10 mM HEPES) the dish is fitted into a parallel plate laminar flow chamber (sold from Glycotech, Rockville, Md.) and mounted on an inverted phase-contrast microscope (sold from Olympus, Hamburg, Germany) equipped with a CCD camera (JVC) that is connected to a PC. Employing a peristaltic pump (sold from Ismatec, Wertheim-Mondfeld, Germany) the re-circulating system is equilibrated with assay buffer containing 125 μM compound or vehicle control (DMSO). Cells (1 million/ml) are added to the chamber and allowed to distribute for 2 minutes at a high flow rate. The flow rate is then decreased resulting in a calculated flow shear of 1 dyne/cm^2. Video sequences of 10 low power fields are digitally recorded after 5 minutes continuous flow. The percentage of inhibition is calculated from the mean number of cells per field that attached to the coated dish surface in the presence versus absence of compound […].

Experiment [2] relates to human P-selectin-IgG chimera. As to the kind of experiment: Flow chamber assay, cell adhesion and rolling under flow conditions, P-selectin. The class given is cell-based. The conditions noted are these: normalized ratio of %-inhibition of compound divided by %-inhibition of bimosiamose; 125 μM compound; HL-60 cells; flow shear 1 dyne/cm^2. Here is the method: as §1, §2, §3

Experiment [3] has as its target T1, human L-Selectin-IgG-chimera (Homo sapiens, UniProt P14151).
T1 construct: fused on or other part: human IgG Fc part, captured on the plate by goat anti human Fc antibody; a tag, no second protein
T1 sequence (P14151 39-318 limits assumed): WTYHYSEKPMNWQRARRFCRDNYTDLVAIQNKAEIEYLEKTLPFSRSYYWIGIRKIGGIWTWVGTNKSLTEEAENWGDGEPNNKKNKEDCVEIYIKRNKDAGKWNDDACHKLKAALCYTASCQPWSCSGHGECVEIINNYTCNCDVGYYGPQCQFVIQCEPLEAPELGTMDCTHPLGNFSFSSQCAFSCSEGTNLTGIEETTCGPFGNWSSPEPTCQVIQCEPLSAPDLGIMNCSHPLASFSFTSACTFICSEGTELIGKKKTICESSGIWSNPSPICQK
The experiment in a line: Sialyl Lewis X Tyrosine Sulfate Assay (sLex TSA), L-selectin. In kind it is binding. As to conditions: sLexTSA. Here is the method: (§4) Sialyl Lewis^X Tyrosine Sulfate Assay (sLe^x TSA):
(§5) Compounds of the present invention are assayed on a molecular level for their ability to inhibit the binding of P-, L-, or E-selectin chimeric molecules to sLe^x and tyrosinesulfate residues linked to a polymeric matrix as a PSGL-1 substitute. Selected IC50-values are determined.
(§6) Microtiter plates are coated overnight in carbonate buffer pH9.6 with goat anti human Fc mAB (10 μg/ml). After washing in assay buffer (25 mM 4-(2-hydroxyethyl)-1-piperazineethanesulfonic acid (HEPES), 150 mM NaCl, 1 mM CaCl2 pH7.4) and blocking (3% bovine serum albumin (BSA) in assay buffer) plates are incubated for 2 h at 37° C. with human P-Selectin-IgG-chimera (0.61 nM respectively 150 ng/mL) or human L-Selectin-IgG-chimera (0.61 nM respectively 89 ng/mL) or human E-Selectin-IgG-chimera (0.61 nM respectively 131 ng/mL). 5 μl of sLe^x-tyrosine sulfate polyacrylamide (1 mg/ml) carrying 15% sLe^x, 10% Tyrosine-sulfate and 5% biotin is complexed with 20 μl Streptavidin-Peroxidase solution (1 mg/ml) and 25 μl assay buffer without CaCl2. For use in the assay, the ligand complex is diluted 1:10000 in assay buffer and further diluted 1:1 with varying amounts of compounds in assay buffer incl. 2% DMSO. This mixture is added to the wells precoated with E- or P-selectin. After incubation for 2 h at 37° C., wells are washed for six times with in assay buffer incl. 0.005% Polyoxyethylenesorbitan monolaurate (TWEEN 20), developed for 10-15 min with 20 μl 3,3′,5,5′-tetramethylbenzidine (TMB)/H2O2 substrate solution and stopped with 20 μl 1M H2SO4. Bound sLe^x-Tyrosine sulfate ligand complex is determined by measuring optical density at 450 nm vs. 620 nm in a Fusion alpha-FP reader (sold from Packard Bioscience, Dreieich, Germany).

Experiment [4] addresses T2, human P-Selectin-IgG-chimera (Homo sapiens, UniProt P16109).
T2 sequence (P16109 42-771 limits assumed): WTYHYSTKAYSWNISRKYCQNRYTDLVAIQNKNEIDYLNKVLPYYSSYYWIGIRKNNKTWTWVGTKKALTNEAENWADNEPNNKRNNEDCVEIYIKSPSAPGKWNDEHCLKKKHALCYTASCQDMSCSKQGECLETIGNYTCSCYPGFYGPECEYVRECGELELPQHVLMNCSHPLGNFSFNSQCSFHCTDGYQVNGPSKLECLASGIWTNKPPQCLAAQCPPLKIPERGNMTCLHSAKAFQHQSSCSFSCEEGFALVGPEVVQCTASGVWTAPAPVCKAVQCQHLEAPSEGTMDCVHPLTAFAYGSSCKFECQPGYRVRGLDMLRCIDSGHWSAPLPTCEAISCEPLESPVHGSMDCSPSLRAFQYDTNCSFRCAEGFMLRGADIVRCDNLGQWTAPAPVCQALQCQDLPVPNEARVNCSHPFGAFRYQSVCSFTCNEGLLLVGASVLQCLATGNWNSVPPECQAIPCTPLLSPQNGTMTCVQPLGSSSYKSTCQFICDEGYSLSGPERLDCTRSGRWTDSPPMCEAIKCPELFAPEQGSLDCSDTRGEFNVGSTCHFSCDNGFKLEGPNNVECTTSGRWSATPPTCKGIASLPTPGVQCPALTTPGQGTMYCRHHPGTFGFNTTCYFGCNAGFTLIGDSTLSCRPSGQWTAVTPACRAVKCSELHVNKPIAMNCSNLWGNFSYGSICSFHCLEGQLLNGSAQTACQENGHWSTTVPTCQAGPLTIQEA
As to the kind of experiment: Sialyl Lewis X Tyrosine Sulfate Assay (sLex TSA), P-selectin. The class given is binding. The conditions noted are these: sLexTSA. Here is the method: as §4, §5, §6

The term IC50 denotes the concentration at which inhibition is half-maximal. A low value points to greater potency.

For `O=C(Nc1ccccc1-c1ccc(C(=O)O)s1)c1cccc(-c2cc(O)cc(O)c2)c1` [Compound 85, 5-{2-[(3′,5′-Dihydroxy-biphenyl-3-carbonyl)-amino]-phenyl}-thiophene-2-carboxylic acid], the “E-Selectin [Ratio]” value in experiment [1] turned out to be 1.20 Ratio. Moreover, in experiment [2], the “P-Selectin [Ratio]” value was found to be 1.90 Ratio.
For `O=C(O)c1cccc(NC(=O)c2cccc(-c3ccc(O)cc3O)c2)c1` [Compound 79, 3-[(2′,4′-Dihydroxy-biphenyl-3-carbonyl)-amino]-benzoic acid] the same measures were 0.96 Ratio and 1.19 Ratio.
The corresponding values for `Cc1oc(-c2ccc(NC(=O)c3cccc(-c4ccc(O)cc4O)c3)cc2)cc1C(=O)O` [Compound 96, 5-{4-[(2′,4′-Dihydroxy-biphenyl-3-carbonyl)-amino]-phenyl}-2-methyl-furan-3-carboxylic acid] are 1.13 Ratio and 1.02 Ratio.
For `COC(=O)Cc1ccc(-c2ccccc2NC(=O)c2cncc(-c3ccc(O)cc3O)c2)s1` [Compound 74, [5-(2-{[5-(2,4-Dihydroxy-phenyl)-pyridine-3-carbonyl]-amino}-phenyl)-thiophen-2-yl]-acetic acid methyl ester] the same measures were 0.68 Ratio and 1.02 Ratio.
Take `COc1ccc(-c2cccc(C(=O)Nc3cccc(-c4ccc(CC(=O)O)s4)c3)c2)c(OC)c1` [Compound 89, (5-{3-[(2′,4′-Dimethoxy-biphenyl-3-carbonyl)-amino]-phenyl}-thiophen-2-yl)-acetic acid]: the “E-Selectin [Ratio]” value in experiment [1] turned out to be 1.27 Ratio. The “P-Selectin [Ratio]” value in experiment [2] came out at 1.41 Ratio.
In the case of `O=C(O)Cc1cccc(-c2cc(CCCCCCc3ccc(O[C@H]4O[C@H](CO)[C@@H](O)[C@H](O)[C@@H]4O)c(-c4cccc(CC(=O)O)c4)c3)ccc2O[C@H]2O[C@H](CO)[C@@H](O)[C@H](O)[C@@H]2O)c1` [Bimosiamose, bimosiamose, reference compound], the IC50 in experiment [3] is > 500 µM.
Consider `O=C(O)Cc1ccc(-c2cccc(NC(=O)c3cccc(-c4ccc(O)cc4O)c3)c2)s1` [Compound 90, (5-{3-[(2′,4′-Dihydroxy-biphenyl-3-carbonyl)-amino]-phenyl}-thiophen-2-yl)-acetic acid], for which the IC50 turned out to be 38.7 µM in experiment [3] and 19.1 µM in experiment [4].
Consider `Cc1oc(-c2ccc(NC(=O)Cc3cc(O)cc(O)c3)cc2)cc1C(=O)O` [Compound 31, 5-{4-[2-(3,5-Dihydroxy-phenyl)-acetylamino]-phenyl}-2-methyl-furan-3-carboxylic acid], for which, in experiment [1], the “E-Selectin [Ratio]” value was found to be 1.16 Ratio. For the same molecule, in experiment [2], the “P-Selectin [Ratio]” value came to 0.60 Ratio.
As for `Cc1oc(-c2ccc(NC(=O)Cc3ccc(O)cc3O)cc2)cc1C(=O)O` [Compound 29, 5-{4-[2-(2,4-Dihydroxy-phenyl)-acetylamino]-phenyl}-2-methyl-furan-3-carboxylic acid], in experiment [1], the “E-Selectin [Ratio]” value is 1.31 Ratio. Further, the “P-Selectin [Ratio]” value in experiment [2] is given as 0.74 Ratio.
Turning to `Cc1oc(-c2ccc(NC(=O)c3cccc(-c4ccc(O)cc4O)c3)nc2)cc1C(=O)O` [Compound 93, 5-{6-[(2′,4′-Dihydroxy-biphenyl-3-carbonyl)-amino]-pyridin-3-yl}-2-methyl-furan-3-carboxylic acid], the “E-Selectin [Ratio]” value in experiment [1] was 0.86 Ratio. Also, the “P-Selectin [Ratio]” value in experiment [2] was 1.13 Ratio.
`O=C(Nc1ccccc1-c1cccs1)c1cccc(-c2ccc(O)cc2O)c1` [Compound 87, 2′,4′-Dihydroxy-biphenyl-3-carboxylic acid (2-thiophen-2-yl-phenyl)-amide]: the “E-Selectin [Ratio]” value in experiment [1] is recorded as 1.24 Ratio. Also, the “P-Selectin [Ratio]” value in experiment [2] stood at 1.05 Ratio.
In the case of `O=C(Nc1cccc(C(F)(F)F)c1)c1cccc(-c2ccc(O)cc2O)c1` [Compound 98, 2′,4′-Dihydroxy-biphenyl-3-carboxylic acid (3-trifluoromethyl-phenyl)-amide], in experiment [1], the “E-Selectin [Ratio]” value was 1.26 Ratio. The “P-Selectin [Ratio]” value in experiment [2] was found to be 1.00 Ratio.
